{"source": "patent US7879914B2", "about": "“Methods for treating viral infections using polyamine analogs” (Pathlogica LLC, priority 2005, dated 2011)", "system": "SIVmac251", "assay": "SIVmac251-infected, CD8-depleted rhesus macaques, escalating doses", "type": "in vivo, rhesus macaque", "description": "For these experiments, rhesus macaques were infected with SIVmac251 and depleted of CD8+ T lymphocytes by administration of a humanized CD8-depleting antibody. […] These monkeys were then treated with escalating doses of MGBG.\nThe animals were treated with MGBG (PA-001) beginning five days post infection (p.i.) with 200 mg/m^2 PA-001, and then treated 7 and 14 days later with 300 mg/m^2 and 400 mg/m^2, respectively of PA-001.\nRhesus macaques similar to those described in Example 9 were used for these studies. An SIVmac251-infected, CD8-depleted monkey was treated with PA-001 (MGBG) beginning five days p.i. with 200 mg/m^2 PA-001, and then treated 7 and 14 days later with 300 mg/m^2 and 400 mg/m^2, respectively of PA-001. A control monkey was SIVmac251-infected and CD8-depleted, but not treated with PA-001. Blood macrophages from control and treated monkeys were sorted every week into three subsets: CD14+/16−, CD14+/16+ and CD14−/16+ where CD14− indicates a low level of CD14 expression. Quantitative SIV PCR analysis of the sorted subsets was subsequently performed.", "data": [{"smiles": "CC(/C=N/NC(=N)N)=N\\NC(=N)N", "note": "[MGBG]", "values": [{"measurement": "levels of CD14+CD16+ monocytes in blood", "setting": "200, 300, 400 mg/m^2 from five days p.i., by day 21 p.i.", "value": "depleted below detectable levels"}, {"measurement": "perivascular cuffs and virus in the CNS", "setting": "21 days p.i., preliminary histopathological analysis", "value": "did not have perivascular cuffs or detectable virus"}, {"measurement": "SIV DNA in sorted blood macrophage subsets", "setting": "after the first and second dose, quantitative SIV PCR", "value": "no longer had any detectable SIV DNA"}, {"measurement": "decrease in Mac387 stained monocyte/macrophage cell number in lymph node", "setting": "compared to untreated animals", "value": "50-80%"}, {"measurement": "plasma virus versus control", "setting": "treated animals vs untreated control", "value": "did not show significant differences"}]}]}
